This note sets out measurements from patent US20240116921A1, “LACTAM (HETERO)[…] DERIVATIVES AS INHIBITORS OF ERBB2” (EnLiven Therapeutics, Inc., priority 2020, published 2024).

Structures are written as SMILES. Where a name gives a salt, the structure may show the parent alone.

For assay [1], the target named is T1, phosphorylated EGFR (pEGFR) (Homo sapiens, UniProt P00533).
T1 construct: performed to measure phosphorylated EGFR levels using A431 cells (10% FBS); endogenous in cells; host or cells: A431
T1 sequence (P00533 25-1210): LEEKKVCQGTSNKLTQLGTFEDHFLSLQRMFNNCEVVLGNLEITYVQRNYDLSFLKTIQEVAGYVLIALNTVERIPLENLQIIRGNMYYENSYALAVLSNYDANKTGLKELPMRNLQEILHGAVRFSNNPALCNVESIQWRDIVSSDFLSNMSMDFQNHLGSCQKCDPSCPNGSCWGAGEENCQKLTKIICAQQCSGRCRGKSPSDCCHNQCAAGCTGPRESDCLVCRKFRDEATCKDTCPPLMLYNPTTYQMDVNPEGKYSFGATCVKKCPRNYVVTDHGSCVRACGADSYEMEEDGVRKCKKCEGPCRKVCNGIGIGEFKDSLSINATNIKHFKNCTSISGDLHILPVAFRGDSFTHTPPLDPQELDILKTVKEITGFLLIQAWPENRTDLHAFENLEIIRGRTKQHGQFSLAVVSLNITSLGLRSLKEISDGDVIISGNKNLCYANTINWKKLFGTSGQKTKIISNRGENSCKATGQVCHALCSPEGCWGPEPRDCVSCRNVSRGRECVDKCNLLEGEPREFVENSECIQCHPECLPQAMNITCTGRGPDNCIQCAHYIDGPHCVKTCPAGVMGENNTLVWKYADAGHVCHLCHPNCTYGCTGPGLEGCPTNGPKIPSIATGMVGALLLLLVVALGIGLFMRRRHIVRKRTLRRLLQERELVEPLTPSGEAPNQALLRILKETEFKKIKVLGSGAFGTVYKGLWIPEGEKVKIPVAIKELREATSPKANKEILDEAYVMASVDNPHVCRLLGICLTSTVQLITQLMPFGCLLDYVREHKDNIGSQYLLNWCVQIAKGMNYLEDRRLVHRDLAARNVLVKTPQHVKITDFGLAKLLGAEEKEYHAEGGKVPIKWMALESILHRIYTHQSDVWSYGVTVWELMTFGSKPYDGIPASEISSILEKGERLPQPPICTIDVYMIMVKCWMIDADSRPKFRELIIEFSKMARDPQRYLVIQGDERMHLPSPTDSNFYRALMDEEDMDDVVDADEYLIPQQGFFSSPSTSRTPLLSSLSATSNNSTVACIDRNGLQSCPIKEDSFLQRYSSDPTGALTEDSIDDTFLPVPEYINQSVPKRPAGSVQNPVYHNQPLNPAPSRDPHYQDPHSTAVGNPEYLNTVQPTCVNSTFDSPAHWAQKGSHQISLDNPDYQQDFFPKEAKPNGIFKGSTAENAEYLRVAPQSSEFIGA
As to the kind of experiment: Detection of phosphorylated EGFR (pEGFR) in EGF-stimulated A431 cells. Format: cell-based. To be noted: A431 cells (10% FBS), 4 hours incubation, EGF 30 ng/mL 10 minutes, AlphaLISA. The protocol:
Enzyme-linked immunosorbent assays (ELISA) were performed to measure phosphorylated EGFR levels using A431 cells (10% FBS). A431 (1.0*10^4 cells/40 μl/well) cells were seeded in 384 well. Compounds were dissolved in DMSO, serially diluted in DMSO and then were added, mixed, and incubated for 4 hours at 37° C., 5% CO2. Following the 4-hours incubation, cells were stimulated for 10 minutes with EGF (Invitrogen, cat #PHG0311) at a final concentration of 30 ng/mL in the incubator. The media was aspirated and cells were lysed in 10 μL lysis buffer with protease and phosphatase inhibitors (PerkinElmer, cat #ALSU-PEGFR-A50K). The plates were placed on a shaker for 5 minutes and then incubated for 30 min at 4° C. for complete lysis. The lysate was transferred to an Optiplate (Perkin Elmer, cat #6007290).
Acceptor mix (PerkinElmer, cat #ALSU-PEGFR-A50K) was prepared just before use and 5 μL was dispensed to all the wells, followed by a 1.5-2 h incubation at room temperature in dark. The donor mix (PerkinElmer, cat #ALSU-PEGFR-A50K) was prepared under low light conditions prior to use and […] of donor mix was added to all the wells under subdued lighting or green filters. The plates were placed on a shaker for 5 min, sealed, and incubated overnight at room temperature in dark. Plates were read on the Envision (PerkinElmer) using standard AlphaLISA settings.
The percentage of inhibition on EGFR phosphorylation was calculated following equation: % Inhibition=100×(LumHC−LumSample)/(LumHC−LumLC). The low and high controls (LC/HC) are generated from lysate from wells with cells treated with DMSO or […] Staurosporine (BioAustralis, cat #BIA-S1086), […]. IC50 values were calculated by fitting the Curve using XLfit (v5.3.1.3), equation 201: Y=Bottom+(Top−Bottom)/(1+10^((Log IC50−X)*HillSlope)).

For assay [2], the target named is Ba/F3 ERBB2 A775_G776insYVMA (Homo sapiens, UniProt P04626, DUP772-775, cells depend on it). Nature of the assay: Cell viability assay, Ba/F3 ERBB2 A775_G776insYVMA. The format is cell-based, mouse. To be noted: Ba/F3 ERBB2 YVMA cells, cell viability, 72 hours, CellTiter Glo; Table B5; read-out: Ba/F3 ERBB2 YVMA, IC50. The protocol: Cells were treated with compounds, and cell viability was measured as a metric of kinase inhibition.
Chain of Ba/F3 ERBB2 A775_G776insYVMA (P04626 with tags, fused parts or gaps DUP772-775): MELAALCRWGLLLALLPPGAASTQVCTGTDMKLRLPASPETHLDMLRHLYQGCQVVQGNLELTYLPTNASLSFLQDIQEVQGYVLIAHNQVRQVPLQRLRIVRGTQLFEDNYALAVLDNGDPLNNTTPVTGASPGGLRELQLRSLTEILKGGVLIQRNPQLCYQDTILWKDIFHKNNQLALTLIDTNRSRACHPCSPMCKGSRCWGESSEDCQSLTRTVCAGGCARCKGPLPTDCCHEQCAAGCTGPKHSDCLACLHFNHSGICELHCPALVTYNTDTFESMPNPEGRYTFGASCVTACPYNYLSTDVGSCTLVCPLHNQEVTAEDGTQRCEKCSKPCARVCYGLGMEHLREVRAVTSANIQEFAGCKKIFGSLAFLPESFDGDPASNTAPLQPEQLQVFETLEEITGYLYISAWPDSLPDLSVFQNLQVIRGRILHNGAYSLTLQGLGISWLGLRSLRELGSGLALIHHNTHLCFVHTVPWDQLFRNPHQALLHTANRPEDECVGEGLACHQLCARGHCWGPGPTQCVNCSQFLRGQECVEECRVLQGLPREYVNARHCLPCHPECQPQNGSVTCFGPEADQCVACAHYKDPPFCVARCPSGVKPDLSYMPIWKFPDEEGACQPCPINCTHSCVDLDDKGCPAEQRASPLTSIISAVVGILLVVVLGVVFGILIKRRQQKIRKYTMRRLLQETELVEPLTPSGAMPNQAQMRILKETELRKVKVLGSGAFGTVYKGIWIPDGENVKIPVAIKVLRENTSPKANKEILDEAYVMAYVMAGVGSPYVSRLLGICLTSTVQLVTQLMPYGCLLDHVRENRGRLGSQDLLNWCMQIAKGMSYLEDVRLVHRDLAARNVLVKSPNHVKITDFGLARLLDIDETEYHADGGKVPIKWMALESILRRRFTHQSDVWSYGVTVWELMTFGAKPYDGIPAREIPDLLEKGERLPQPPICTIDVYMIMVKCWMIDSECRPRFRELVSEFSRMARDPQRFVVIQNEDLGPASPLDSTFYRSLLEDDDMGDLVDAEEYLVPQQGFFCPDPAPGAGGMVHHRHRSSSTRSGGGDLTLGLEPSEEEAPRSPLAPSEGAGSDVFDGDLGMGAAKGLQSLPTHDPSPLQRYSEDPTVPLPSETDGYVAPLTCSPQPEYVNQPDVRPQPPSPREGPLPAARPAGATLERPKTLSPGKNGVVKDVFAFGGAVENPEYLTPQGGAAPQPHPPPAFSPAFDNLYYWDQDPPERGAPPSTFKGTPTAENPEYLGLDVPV
The Ba/F3 cell line is IL-3-dependent mouse cell line derived from the C3H mouse strain. Ba/F3 cell lines were engineered to express human ERBB2 or EGFR kinases, rendering the cells IL-3 independent. The lines were generated via retroviral transduction utilizing a Moloney murine leukemia virus (MMLV) promoter, and constructs are stably integrated into the cell genome. The sequences of the ERBB2 and EGFR genes used were NCBI Reference Sequences NM_004448.3 and NM_005228.3, respectively.
Similarly, Ba/F3 cell lines engineered to express EGFR, ERBB2, or ERBB2 mutants were grown, harvested, counted and seeded at 3000 cells per well in 96-well plates. A subset of wells contained media only (low control, “LC”).
Table B1 provides the growth media and number of cells seeded per well for the each cell line.
Plates were placed in a 37° C., 5% CO2 incubator for 72 hours. Plates were then removed from the incubator and equilibrated for 15 minutes at room temperature. 40 μl of CellTiter Glo reagent (Promega) was added to measure the relative level of metabolically active cells by quantifying intracellular ATP concentrations. Plates were incubated for 30 minutes at room temperature, and luminescence was measured. […] Graphical curves were fitted using a nonlinear regression model with a sigmoidal dose response.
(In general: ATP-based viability assays read luminescence as a measure of living cells.)

Assay [3] concerns the target T2, phosphorylated ERBB2 (pERBB2) (Homo sapiens, UniProt P04626).
T2 construct: endogenous in cells; host or cells: BT-474
As to the kind of experiment: Detection of phosphorylated ERBB2 (pERBB2) by ELISA in BT-474 cells. Format: cell-based. To be noted: four hours incubation. Here is the method:
BT-474 cells were seeded into a 96-well at 2.0*10^4 cells/100 μl/well.
Compounds were dissolved and serially diluted in DMSO. The compounds were then were added, mixed, and incubated for four hours at 37° C., 5% CO2. Compounds were added using four-fold dilutions at final concentrations ranging from 10 μM to 0.01 nM.
Following the four hour incubation with compounds, cell lysates were prepared.
Plates were centrifuged for 5 min at 3000 RPM, and supernatant was removed from each well. Cells were washed 3 times by resuspension in 150 μl PBS, followed by centrifugation and removal of the supernatant, as above. […] Cells were incubated with lysis buffer for 1 hour at 4° C., and then stored at −80° C.
Enzyme-linked immunosorbent assays (ELISA) were performed to measure phosphorylated ERBB2 levels. […] The next day, plates were washed with PBS+0.05% Tween20 (PBST). 150 μl of 5% BSA blocking solution was added for 1 hour at room temperature, with shaking. Plates were washed with PBST. Cell lysates were thawed and 100 μl of lysate was added to the ELISA plate. The plates were incubated for 2 hours at room temperature, with shaking. […] Plates were incubated for 1 hour at room temperature, with shaking. Plates were then washed with PBST, and 100 μl TMB substrate solution (R&D Systems, cat #DY999) was added. Plate were incubated in the dark for 20 minutes at room temperature. 50 μl of Stop solution (R&D Systems, cat #DY994) (50 μl) was added to each well and mixed.
Optical density at 450 nm was read on an EnSpire plate reader (Perkin Elmer). The remaining kinase activity by calculated using the following formula: % Relative activity=100×(A450sample−A450LC)/(A450HC−A450LC). The low and high control values (“LC” and “HC”) were generated from lysate from wells without cells or with cells treated with 0.1% DMSO, respectively.
In general terms: In an ELISA, binding on a coated surface is turned into a signal by an enzyme label.

T2 sequence (P04626 23-1255): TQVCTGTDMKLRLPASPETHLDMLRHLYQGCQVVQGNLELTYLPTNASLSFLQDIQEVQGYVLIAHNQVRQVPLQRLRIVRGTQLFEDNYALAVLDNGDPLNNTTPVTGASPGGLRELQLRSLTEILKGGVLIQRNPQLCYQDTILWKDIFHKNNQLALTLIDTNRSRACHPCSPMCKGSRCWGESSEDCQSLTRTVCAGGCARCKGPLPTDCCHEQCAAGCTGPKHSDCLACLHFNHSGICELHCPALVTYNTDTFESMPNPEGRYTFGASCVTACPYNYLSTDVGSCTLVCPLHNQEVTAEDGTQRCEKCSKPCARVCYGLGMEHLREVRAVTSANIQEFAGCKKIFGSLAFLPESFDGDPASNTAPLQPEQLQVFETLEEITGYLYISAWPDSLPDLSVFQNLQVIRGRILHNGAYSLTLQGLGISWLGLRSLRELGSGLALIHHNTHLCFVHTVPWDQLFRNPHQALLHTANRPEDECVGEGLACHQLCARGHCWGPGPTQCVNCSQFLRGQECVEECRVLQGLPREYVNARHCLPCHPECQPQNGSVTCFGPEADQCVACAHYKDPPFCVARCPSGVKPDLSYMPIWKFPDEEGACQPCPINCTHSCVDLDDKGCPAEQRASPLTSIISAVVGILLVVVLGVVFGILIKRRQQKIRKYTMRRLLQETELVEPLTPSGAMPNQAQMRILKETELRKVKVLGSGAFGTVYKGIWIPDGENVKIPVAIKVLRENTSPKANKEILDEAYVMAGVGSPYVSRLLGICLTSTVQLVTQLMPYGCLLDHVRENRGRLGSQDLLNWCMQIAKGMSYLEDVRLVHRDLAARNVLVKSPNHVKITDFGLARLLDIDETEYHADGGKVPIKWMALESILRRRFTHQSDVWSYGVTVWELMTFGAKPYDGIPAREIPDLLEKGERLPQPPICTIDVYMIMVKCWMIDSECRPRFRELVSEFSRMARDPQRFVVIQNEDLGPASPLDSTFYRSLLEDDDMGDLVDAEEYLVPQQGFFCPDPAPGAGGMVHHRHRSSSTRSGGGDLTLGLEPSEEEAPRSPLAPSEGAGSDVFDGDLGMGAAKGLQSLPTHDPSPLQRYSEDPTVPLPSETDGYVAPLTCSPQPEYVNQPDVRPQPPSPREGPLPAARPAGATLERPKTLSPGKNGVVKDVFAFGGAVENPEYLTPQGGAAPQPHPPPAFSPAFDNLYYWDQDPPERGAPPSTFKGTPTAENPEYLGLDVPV

Turning to `CC1CN(c2cc3c(Nc4ccc(Oc5ccc6c(c5)nnn6C)c(F)c4)ncnc3cn2)C(=O)/C1=C/CN(C)C` (single isomer, unassigned) [Example S117, Enantiomer #1, (E)-3-(2-(dimethylamino)ethylidene)-1-(4-((3-fluoro-4-((1-methyl-1H-benzo[d][1,2,3]triazol-5-yl)oxy)phenyl)amino)pyrido[3,4-d]pyrimidin-6-yl)-4-methylpyrrolidin-2-one], the IC50 is 968 nM in assay [1] and 40 nM in assay [3]. In assay [2], the GI50 worked out at 12 nM.

For `CC1CN(c2cc3c(Nc4ccc(Oc5ccc6c(c5)nnn6C)c(F)c4)ncnc3cn2)C(=O)/C1=C/CN(C)C` (single isomer, unassigned) [Example S117, Enantiomer #2, (E)-3-(2-(dimethylamino)ethylidene)-1-(4-((3-fluoro-4-((1-methyl-1H-benzo[d][1,2,3]triazol-5-yl)oxy)phenyl)amino)pyrido[3,4-d]pyrimidin-6-yl)-4-methylpyrrolidin-2-one], the values for the half-inhibitory concentration (IC50) in assay [1] and in assay [3] were above 10000 nM and 589 nM, respectively. Also, in assay [2], the GI50 is above 500 nM.

As to `CC1CN(c2cc3c(Nc4cc(F)c(Oc5ccc6c(c5)nnn6C)cc4F)ncnc3cn2)C(=O)/C1=C/CN(C)C` (single isomer, unassigned) [Example S125, Enantiomer #1, (3E)-1-[4-({2,5-difluoro-4-[(1-methyl-1,2,3-benzotriazol-5-yl)oxy]phenyl}amino)pyrido[3,4-d]pyrimidin-6-yl]-3-[2-(dimethylamino)ethylidene]-4-methylpyrrolidin-2-one], the IC50 in assay [1] is above 10000 nM; in assay [3], 710 nM. The GI50 in assay [2] was above 500 nM.

As for `CC1CN(c2cc3c(Nc4cc(F)c(Oc5ccc6c(c5)nnn6C)cc4F)ncnc3cn2)C(=O)/C1=C/CN(C)C` (single isomer, unassigned) [Example S125, Enantiomer #2, (3E)-1-[4-({2,5-difluoro-4-[(1-methyl-1,2,3-benzotriazol-5-yl)oxy]phenyl}amino)pyrido[3,4-d]pyrimidin-6-yl]-3-[2-(dimethylamino)ethylidene]-4-methylpyrrolidin-2-one], the concentration for half-maximal inhibition (IC50) in assay [1] was determined as 2300 nM; in assay [3] it was 76 nM. Further, in assay [2], the GI50 worked out at 27 nM.

On to `Cc1cc(Nc2ncnc3ccc(N4CC(C)C(=CCN(C)C)C4=O)nc23)ccc1Oc1ccc2c(c1)nnn2C` (single isomer, unassigned) [Example S126, Enantiomer #1, 3-[2-(dimethylamino)ethylidene]-4-methyl-1-[4-({3-methyl-4-[(1-methyl-1,2,3-benzotriazol-5-yl)oxy]phenyl}amino)pyrido[3,2-d]pyrimidin-6-yl]pyrrolidin-2-one], for which the IC50 is 299 nM in assay [1] and 40.9 nM in assay [3]. The GI50 in assay [2] worked out at 2.04 nM.

In the case of `Cc1cc(Nc2ncnc3ccc(N4CC(C)C(=CCN(C)C)C4=O)nc23)ccc1Oc1ccc2c(c1)nnn2C` (single isomer, unassigned) [Example S126, Enantiomer #2, 3-[2-(dimethylamino)ethylidene]-4-methyl-1-[4-({3-methyl-4-[(1-methyl-1,2,3-benzotriazol-5-yl)oxy]phenyl}amino)pyrido[3,2-d]pyrimidin-6-yl]pyrrolidin-2-one], the half-inhibitory concentration (IC50) in assay [1] was above 10000 nM; in assay [3] it was 401 nM. For the same compound, in assay [2], the GI50 was 205 nM.

For `CC1CN(c2ccc3ncnc(Nc4ccc(Oc5ccn6ncnc6c5)c(F)c4)c3n2)C(=O)/C1=C/CN(C)C` (single isomer, unassigned) [Example S127, Enantiomer #1, (E)-1-(4-((4-([1,2,4]triazolo[1,5-a]pyridin-7-yloxy)-3-fluorophenyl)amino)pyrido[3,2-d]pyrimidin-6-yl)-3-(2-(dimethylamino)ethylidene)-4-methylpyrrolidin-2-one], the figures for the IC50 in assay [1] and in assay [3] were 575 nM and 14 nM, respectively. In assay [2], the GI50 amounted to 2.88 nM.

On to `CC1CN(c2ccc3ncnc(Nc4ccc(Oc5ccn6ncnc6c5)c(F)c4)c3n2)C(=O)/C1=C/CN(C)C` (single isomer, unassigned) [Example S127, Enantiomer #2, (E)-1-(4-((4-([1,2,4]triazolo[1,5-a]pyridin-7-yloxy)-3-fluorophenyl)amino)pyrido[3,2-d]pyrimidin-6-yl)-3-(2-(dimethylamino)ethylidene)-4-methylpyrrolidin-2-one], for which the figures for the IC50 in assay [1] and in assay [3] were above 10000 nM and 146 nM, respectively. In assay [2], the GI50 was 418 nM.

On to `C=C1C(=O)N(c2cc3c(Nc4ccc(Oc5ccn6ncnc6c5)c(C)c4)ncnc3cn2)C2CC12` (single isomer, unassigned; enantiomer 1) [Example S40, Enantiomer # 1, 2-{4-[(3-methyl-4-{[1,2,4]triazolo[1,5-a]pyridin-7-yloxy}phenyl)amino]pyrido[3,4-d]pyrimidin-6-yl}-4-methylidene-2-azabicyclo[3.1.0]hexan-3-one Enantiomer 1], for which the IC50 was determined as 103 nM in assay [1] and 9.9 nM in assay [3]. Also, in assay [2], the GI50 was 3.47 nM.

With `Cc1cc(Nc2ncnc3ccc(N4CC(C)/C(=C\CN(C)C)C4=O)nc23)ccc1Oc1ccc2c(c1)ncn2C` (single isomer, unassigned; enantiomer 1) [Example S58, Enantiomer # 1, (3E)-3-[2-(dimethylamino)ethylidene]-4-methyl-1-[4-({3-methyl-4-[(1-methyl-1,3-benzodiazol-5-yl)oxy]phenyl}amino)pyrido[3,2-d]pyrimidin-6-yl]pyrrolidin-2-one hydrochloride Enantiomer 1], the IC50 amounted to 264 nM in assay [1] and 29.7 nM in assay [3]. Besides, in assay [2], the GI50 worked out at 1.46 nM.

In the case of `C=C1C(=O)N(c2cc3c(Nc4ccc(Oc5ccn6ncnc6c5)c(C)c4)ncnc3cn2)C2CC12` (single isomer, unassigned; enantiomer 2) [Example S40, Enantiomer # 2, 2-{4-[(3-methyl-4-{[1,2,4]triazolo[1,5-a]pyridin-7-yloxy}phenyl)amino]pyrido[3,4-d]pyrimidin-6-yl}-4-methylidene-2-azabicyclo[3.1.0]hexan-3-one Enantiomer 2], the results for the half-maximal inhibitory concentration (IC50) in assay [1] and in assay [3] were 6450 nM and 35.5 nM, respectively. The GI50 in assay [2] came to 68.1 nM.

In general, IC50 refers to the point on the concentration scale where inhibition reaches its midpoint. A lower IC50 goes with greater potency.
